From patent US8017602B2, “N-(2-(2-(5-hydroxy-3-oxo-3,4-dihydro-2H-benzo[b][1,4]oxazin-8-yl)ethylamino)ethyl)-3-(phenethoxy)propanamide derivatives, processes for their preparation, pharmaceutical compositions containing them and their use in therapy” (AstraZeneca AB, priority 2008, dated 2011)
Where a name gives a salt, the structure may show the parent alone.

Columns and labels:
[1] = molecular target: T1, recombinant human Dopamine Subtype D2s receptors (Homo sapiens, UniProt P14416); experiment: Dopamine D2 selectivity binding assay ([3H]-spiperone); conditions: inhibition of [3H]-spiperone binding, human D2s membranes; read-out: D2 bind pIC50 (converted)
T1 construct: purchased Perkin Elmer
Experimental: (§1) Membranes containing recombinant human Dopamine Subtype D2s receptors were obtained from Perkin Elmer. These were diluted in Assay Buffer (50 mM HEPES, 1 mM EDTA, 120 mM NaCl, 0.1% gelatin, pH 7.4) to provide a final concentration of membranes that gave a clear window between maximum and minimum specific binding.
Assays were performed in U-bottomed 96-well polypropylene plates. 30 μL [^3H]-spiperone (0.16 nM final concentration) and 30 μl of test compound (10× final concentration) were added to each test well. For each assay plate 8 replicates were obtained for [^3H]-spiperone binding in the presence of 30 μL vehicle (10% (v/v) DMSO in Assay Buffer; defining maximum binding) or 30 μl Haloperidol (10 μM final concentration; defining non-specific binding (NSB)). Membranes were then added to achieve a final volume of 300 μL. The plates were incubated for 2 h at room temperature and then filtered onto PEI coated GF/B filter plates, pre-soaked for 1 h in Assay Buffer, using a 96-well plate Tomtec cell harvester. Five washes with 250 μl wash buffer (50 mM HEPES, 1 mM EDTA, 120 mM NaCl, pH 7.4) were performed at 4° C. to remove unbound radioactivity. The plates were dried then sealed from underneath using Packard plate sealers and MicroScint-O (50 μl) was added to each well. The plates were sealed (TopSeal A) and filter-bound radioactivity was measured with a scintillation counter (TopCount, Packard BioScience) using a 3-minute counting protocol.
(§2) Total specific binding (B0) was determined by subtracting the mean NSB from the mean maximum binding. NSB values were also subtracted from values from all other wells. […] Data was fitted to a four parameter logistic equation to determine the compound potency, which was expressed as pIC50 (negative log molar concentration inducing 50% inhibition of [^3H]-spiperone binding).

[2] = molecular target: T2, recombinant human adrenergic beta 1 receptors (Homo sapiens, UniProt P08588); experiment: Adrenergic β1 selectivity binding assay ([125I]-Iodocyanopindolol); conditions: inhibition of [125I]-Iodocyanopindolol binding, human β1 membranes; read-out: β1 bind p IC50 (converted)
T2 construct: purchased Euroscreen
Experimental: as §1, with “adrenergic beta 1” for “Dopamine Subtype D2s”, “Euroscreen.” for “Perkin Elmer.”
Assays were performed in U-bottomed 96-well polypropylene plates. 10 μL [^125I]-Iodocyanopindolol (0.036 nM final concentration) and 10 μL of test compound (10× final concentration) were added to each test well. For each assay plate 8 replicates were obtained for [^125I]-Iodocyanopindolol binding in the presence of 10 μl vehicle (10% (v/v) DMSO in Assay Buffer; defining maximum binding) or 10 μl Propranolol (10 μM final concentration; defining non-specific binding (NSB)). Membranes were then added to achieve a final volume of 100 μL. The plates were incubated for 2 h at room temperature and then filtered onto PEI coated GF/B filter plates, pre-soaked for 1 h in Assay Buffer, using a 96-well plate Tomtec cell harvester. Five washes with 250 μL wash buffer (50 mM HEPES, 1 mM EDTA, 120 mM NaCl, pH 7.4) were performed at 4° C. to remove unbound radioactivity. The plates were dried then sealed from underneath using Packard plate sealers and MicroScint-O (50 μl) was added to each well. The plates were sealed (TopSeal A) and filter-bound radioactivity was measured with a scintillation counter (TopCount, Packard BioScience) using a 3-minute counting protocol.
as §2, with “[^125I]-Iodocyanopindolol” for “[^3H]-spiperone”

T2 sequence (P08588 whole entry): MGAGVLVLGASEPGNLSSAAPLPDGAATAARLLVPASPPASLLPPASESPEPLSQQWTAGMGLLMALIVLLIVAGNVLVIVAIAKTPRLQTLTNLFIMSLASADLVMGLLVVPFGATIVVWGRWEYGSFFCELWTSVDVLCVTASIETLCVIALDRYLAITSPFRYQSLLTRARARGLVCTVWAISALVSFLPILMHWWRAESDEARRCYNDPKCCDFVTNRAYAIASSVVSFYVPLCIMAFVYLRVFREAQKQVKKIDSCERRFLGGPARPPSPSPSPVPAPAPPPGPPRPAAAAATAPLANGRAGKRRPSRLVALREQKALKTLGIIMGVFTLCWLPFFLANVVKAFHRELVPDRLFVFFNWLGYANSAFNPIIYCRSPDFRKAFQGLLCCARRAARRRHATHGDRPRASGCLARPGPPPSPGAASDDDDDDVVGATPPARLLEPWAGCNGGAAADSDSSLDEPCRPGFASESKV
T1 sequence (P14416 1-414 isoform P14416-2): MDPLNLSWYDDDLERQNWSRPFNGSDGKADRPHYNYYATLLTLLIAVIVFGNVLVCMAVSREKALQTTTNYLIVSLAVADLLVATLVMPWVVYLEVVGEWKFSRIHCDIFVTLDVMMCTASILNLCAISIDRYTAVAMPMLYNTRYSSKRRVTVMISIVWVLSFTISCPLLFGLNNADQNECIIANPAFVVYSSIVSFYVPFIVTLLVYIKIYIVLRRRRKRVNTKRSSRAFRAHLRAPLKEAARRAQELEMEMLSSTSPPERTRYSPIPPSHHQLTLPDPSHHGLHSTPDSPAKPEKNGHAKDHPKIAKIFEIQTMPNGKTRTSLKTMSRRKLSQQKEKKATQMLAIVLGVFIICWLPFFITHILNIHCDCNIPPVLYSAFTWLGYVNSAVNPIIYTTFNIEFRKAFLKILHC

Row | SMILES | IC50 [1] [µM] | IC50 [2] [µM]
1 | CCCC[C@@H](C)N(CCNCCc1ccc(O)c2c1OCC(=O)N2)C(=O)CCOCCc1cccc(-c2cnn(C)c2)c1 [Example 30, (R)—N-(Hexan-2-yl)-N-(2-(2-(5-hydroxy-3-oxo-3,4-dihydro-2H-benzo[b][1,4]oxazin-8-yl)ethylamino)ethyl)-3-(3-(1-methyl-1H-pyrazol-4-yl)phenethoxy)propanamide Trifluoroacetic Acid Salt] | 2.51 | 3.98
2 | Cn1nnnc1-c1cccc(CCOCCC(=O)N(CCNCCc2ccc(O)c3c2OCC(=O)N3)C2CCCCC2)c1 [Example 08, N-Cyclohexyl-N-(2-(2-(5-hydroxy-3-oxo-3,4-dihydro-2H-benzo[b][1,4]oxazin-8-yl)ethylamino)ethyl)-3-(3-(1-methyl-1H-tetrazol-5-yl)phenethoxy)propanamide Trifluoroacetic Acid Salt] | 3.16 | > 10
3 | Cn1cc(-c2cccc(CCOCCC(=O)N(CCNCCc3ccc(O)c4c3OCC(=O)N4)C3CCCCC3)c2)nn1 [Example 05, N-Cyclohexyl-N-(2-(2-(5-hydroxy-3-oxo-3,4-dihydro-2H-benzo[b][1,4]oxazin-8-yl)ethylamino)ethyl)-3-(3-(1-methyl-1H-1,2,3-triazol-4-yl)phenethoxy)propanamide Trifluoroacetic Acid Salt] | 3.16 | > 7.94
4 | CCn1cc(-c2cccc(CCOCCC(=O)N(CCNCCc3ccc(O)c4c3OCC(=O)N4)C3CCCCC3)c2)nn1 [Example 04, N-Cyclohexyl-3-(3-(1-ethyl-1H-1,2,3-triazol-4-yl)phenethoxy)-N-(2-(2-(5-hydroxy-3-oxo-3,4-dihydro-2H-benzo[b][1,4]oxazin-8-yl)ethylamino)ethyl)propanamide Trifluoroacetic Acid Salt] | 6.31 | > 10
5 | C[C@@H](N(CCNCCc1ccc(O)c2c1OCC(=O)N2)C(=O)CCOCCc1cccc(-c2cnn(C)c2)c1)C(C)(C)C [Example 26, (R)—N-(3,3-Dimethylbutan-2-yl)-N-(2-(2-(5-hydroxy-3-oxo-3,4-dihydro-2H-benzo[b][1,4]oxazin-8-yl)ethylamino)ethyl)-3-(3-(1-methyl-1H-pyrazol-4-yl)phenethoxy)propanamide Trifluoroacetic Acid Salt] | 2.51 | > 10
6 | CC(C)n1cc(-c2cccc(CCOCCC(=O)N(CCNCCc3ccc(O)c4c3OCC(=O)N4)C3CCCC3)c2)cn1 [Example 22, N-Cyclopentyl-N-(2-(2-(5-hydroxy-3-oxo-3,4-dihydro-2H-benzo[b][1,4]oxazin-8-yl)ethylamino)ethyl)-3-(3-(1-isopropyl-1H-pyrazol-4-yl)phenethoxy)propanamide Trifluoroacetic Acid Salt] | 2.51 | 5.01
7 | Cn1ccnc1-c1cccc(CCOCCC(=O)N(CCNCCc2ccc(O)c3c2OCC(=O)N3)C2CCCCC2)c1 [Example 33, N-Cyclohexyl-N-(2-(2-(5-hydroxy-3-oxo-3,4-dihydro-2H-benzo[b][1,4]oxazin-8-yl)ethylamino)ethyl)-3-(3-(1-methyl-1H-imidazol-2-yl)phenethoxy)propanamide] | 3.16 | > 10
8 | CCn1cc(-c2cccc(CCOCCC(=O)N(CCNCCc3ccc(O)c4c3OCC(=O)N4)C3CCCCC3)c2)cn1 [Example 28, N-Cyclohexyl-3-(3-(1-ethyl-1H-pyrazol-4-yl)phenethoxy)-N-(2-(2-(5-hydroxy-3-oxo-3,4-dihydro-2H-benzo[b][1,4]oxazin-8-yl)ethylamino)ethyl)propanamide] | > 5.01 | > 10
9 | Cc1nc(-c2cccc(CCOCCC(=O)N(CCNCCc3ccc(O)c4c3OCC(=O)N4)C3CCCCC3)c2)cn1C [Example 35, N-Cyclohexyl-3-(3-(1,2-dimethyl-1H-imidazol-4-yl)phenethoxy)-N-(2-(2-(5-hydroxy-3-oxo-3,4-dihydro-2H-benzo[b][1,4]oxazin-8-yl)ethylamino)ethyl)propanamide Trifluoroacetic Acid Salt] | 3.16 | > 10
10 | O=C1COc2c(CCNCCN(C(=O)CCOCCc3cccc(-c4cnco4)c3)C3CCCCC3)ccc(O)c2N1 [Example 10, N-Cyclohexyl-N-(2-(2-(5-hydroxy-3-oxo-3,4-dihydro-2H-benzo[b][1,4]oxazin-8-yl)ethylamino)ethyl)-3-(3-(oxazol-5-yl)phenethoxy)propanamide Trifluoroacetic Acid Salt] | 1 | 6.31
11 | Cn1cc(-c2cc(F)cc(CCOCCC(=O)N(CCNCCc3ccc(O)c4c3OCC(=O)N4)C3CCCCC3)c2)cn1 [Example 17, N-Cyclohexyl-3-(3-fluoro-5-(1-methyl-1H-pyrazol-4-yl)phenethoxy)-N-(2-(2-(5-hydroxy-3-oxo-3,4-dihydro-2H-benzo[b][1,4]oxazin-8-yl)ethylamino)ethyl)propanamide Trifluoroacetic Acid Salt] | 2.51 | 5.01
12 | CC(C)n1cc(-c2cccc(CCOCCC(=O)N(CCNCCc3ccc(O)c4c3OCC(=O)N4)C3CCCCC3)c2)nn1 [Example 12, N-Cyclohexyl-N-(2-(2-(5-hydroxy-3-oxo-3,4-dihydro-2H-benzo[b][1,4]oxazin-8-yl)ethylamino)ethyl)-3-(3-(1-isopropyl-1H-1,2,3-triazol-4-yl)phenethoxy)propanamide Trifluoroacetic Acid Salt] | 3.98 | > 10
